{"source": "PubChem BioAssay (NCI)", "experiment_in_all_cases": "DTP human tumour cell line panel, 384-well format", "key": {"[1]": {"system": "HOP-92 NSCLC"}, "[2]": {"system": "OVCAR-8 ovarian"}, "[3]": {"system": "T-47D breast"}, "[4]": {"system": "SW-620 colon"}, "[5]": {"system": "EKVX NSCLC"}, "[6]": {"system": "UACC-257 melanoma"}, "[7]": {"system": "BT-549 breast"}, "[8]": {"system": "MDA-MB-468 breast"}, "[9]": {"system": "HOP-62 NSCLC"}, "[10]": {"system": "SK-MEL-28 melanoma"}, "[11]": {"system": "HCC-2998 colon"}, "[12]": {"system": "NCI-H226 lung"}, "[13]": {"system": "RPMI-8226 leukemia"}, "[14]": {"system": "NCI-H322M lung"}, "[15]": {"system": "COLO 205 colon"}, "[16]": {"system": "NCI-H460 NSCLC"}, "[17]": {"system": "SK-MEL-5 melanoma"}, "[18]": {"system": "SN12C renal"}, "[19]": {"system": "NCI-H23 lung"}, "[20]": {"system": "HL-60(TB) leukemia"}, "[21]": {"system": "CCRF-CEM leukemia"}, "[22]": {"system": "A549 NSCLC"}, "[23]": {"system": "NCI-H522 lung"}, "[24]": {"system": "HCT-116 colon"}, "[25]": {"system": "U251 glioblastoma"}, "[26]": {"system": "DU-145 prostate"}, "[27]": {"system": "SNB-19 CNS"}, "[28]": {"system": "SF-539 CNS"}}, "note": "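At the GI50, growth is halved. TGI marks complete inhibition of growth.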"}
{"smiles": "COC1CCC(N2C(=O)CNc3ncc(-c4ccc(C(C)(C)O)nc4)nc32)CC1", "note": "(stereo unspecified)", "values": [{"measurement": "GI50", "setting": "[1]", "value": 454, "unit": "nM"}, {"measurement": "TGI", "setting": "[1]", "value": "> 100000", "unit": "nM"}, {"measurement": "GI50", "setting": "[2]", "value": 693, "unit": "nM"}, {"measurement": "TGI", "setting": "[2]", "value": "> 100000", "unit": "nM"}, {"measurement": "GI50", "setting": "[3]", "value": 74.3, "unit": "nM"}, {"measurement": "TGI", "setting": "[3]", "value": "> 100000", "unit": "nM"}, {"measurement": "GI50", "setting": "[4]", "value": 2580, "unit": "nM"}, {"measurement": "TGI", "setting": "[4]", "value": "> 100000", "unit": "nM"}, {"measurement": "GI50", "setting": "[5]", "value": 530, "unit": "nM"}, {"measurement": "TGI", "setting": "[5]", "value": 31200, "unit": "nM"}, {"measurement": "GI50", "setting": "[6]", "value": 3010, "unit": "nM"}, {"measurement": "TGI", "setting": "[6]", "value": "> 100000", "unit": "nM"}, {"measurement": "GI50", "setting": "[7]", "value": 474, "unit": "nM"}, {"measurement": "TGI", "setting": "[7]", "value": 7350, "unit": "nM"}, {"measurement": "GI50", "setting": "[8]", "value": 344, "unit": "nM"}, {"measurement": "TGI", "setting": "[8]", "value": 6980, "unit": "nM"}, {"measurement": "GI50", "setting": "[9]", "value": 672, "unit": "nM"}, {"measurement": "TGI", "setting": "[9]", "value": "> 100000", "unit": "nM"}, {"measurement": "GI50", "setting": "[10]", "value": 234, "unit": "nM"}, {"measurement": "TGI", "setting": "[10]", "value": "> 100000", "unit": "nM"}, {"measurement": "GI50", "setting": "[11]", "value": 2540, "unit": "nM"}, {"measurement": "TGI", "setting": "[11]", "value": 34800, "unit": "nM"}, {"measurement": "GI50", "setting": "[12]", "value": 326, "unit": "nM"}, {"measurement": "TGI", "setting": "[12]", "value": 7120, "unit": "nM"}, {"measurement": "GI50", "setting": "[13]", "value": 25, "unit": "nM"}, {"measurement": "TGI", "setting": "[13]", "value": 110, "unit": "nM"}, {"measurement": "GI50", "setting": "[14]", "value": 280, "unit": "nM"}, {"measurement": "TGI", "setting": "[14]", "value": 52900, "unit": "nM"}, {"measurement": "GI50", "setting": "[15]", "value": 323, "unit": "nM"}, {"measurement": "TGI", "setting": "[15]", "value": "> 100000", "unit": "nM"}, {"measurement": "GI50", "setting": "[16]", "value": 65.9, "unit": "nM"}, {"measurement": "TGI", "setting": "[16]", "value": 16300, "unit": "nM"}, {"measurement": "GI50", "setting": "[17]", "value": 200, "unit": "nM"}, {"measurement": "TGI", "setting": "[17]", "value": 2620, "unit": "nM"}, {"measurement": "GI50", "setting": "[18]", "value": 275, "unit": "nM"}, {"measurement": "TGI", "setting": "[18]", "value": 68400, "unit": "nM"}, {"measurement": "GI50", "setting": "[19]", "value": 1460, "unit": "nM"}, {"measurement": "TGI", "setting": "[19]", "value": "> 100000", "unit": "nM"}, {"measurement": "GI50", "setting": "[20]", "value": 2470, "unit": "nM"}, {"measurement": "TGI", "setting": "[20]", "value": 17100, "unit": "nM"}, {"measurement": "GI50", "setting": "[21]", "value": 261, "unit": "nM"}, {"measurement": "TGI", "setting": "[21]", "value": 10600, "unit": "nM"}, {"measurement": "GI50", "setting": "[22]", "value": 358, "unit": "nM"}, {"measurement": "TGI", "setting": "[22]", "value": "> 100000", "unit": "nM"}, {"measurement": "GI50", "setting": "[23]", "value": 200, "unit": "nM"}, {"measurement": "TGI", "setting": "[23]", "value": 21400, "unit": "nM"}, {"measurement": "GI50", "setting": "[24]", "value": 690, "unit": "nM"}, {"measurement": "TGI", "setting": "[24]", "value": 21800, "unit": "nM"}, {"measurement": "GI50", "setting": "[25]", "value": 1900, "unit": "nM"}, {"measurement": "TGI", "setting": "[25]", "value": 41200, "unit": "nM"}, {"measurement": "GI50", "setting": "[26]", "value": 660, "unit": "nM"}, {"measurement": "TGI", "setting": "[26]", "value": 20200, "unit": "nM"}, {"measurement": "GI50", "setting": "[27]", "value": 5340, "unit": "nM"}, {"measurement": "TGI", "setting": "[27]", "value": "> 100000", "unit": "nM"}, {"measurement": "GI50", "setting": "[28]", "value": 1270, "unit": "nM"}, {"measurement": "TGI", "setting": "[28]", "value": 22300, "unit": "nM"}]}
